Data set [1] deals with blood tumor barrier (BTB) of C6 glioma. In words: BTB opening in C6 glioma-bearing rats, Evans blue accumulation in tumor. Type of data set: in vivo, Sprague Dawley rats. The settings on record: for EC50: C6 glioma-bearing rats; for BTB EB μg/g Tumor: concentrations around EC50 (Mannitol 25%), unilateral 30 s infusion; for Specificity Tumor/Non-tumor (T/NT): ratio of EB accumulated in tumor and non-tumor brain. The protocol: (§1) In order to study the ability of DP-BFA compounds to modulate blood tumor barrier (BTB), a model system of C6 glioma-bearing rats, was employed.
(§2) Sprague Dawley (SD) rats were inoculated with C6 gliosarcoma cells following the procedure described by Bartus et al. (Exp Neurol (1996); 142:14–28). A small burr-hole was made in the frontal scalp bone of the rat fixed in a stereotaxis apparatus. Using a Hamilton syringe, 10 μl or 5 μl of media, containing 2.5×10^5 C6 gliosarcoma cells were inoculated into the frontal cortex. Coordinates were 1 mm posterior of bregma, 2.5 mm—lateral, and 3 mm—depth. The needle remained in the place for 5 min. After removal of the needle, fascia and scalp were sutured. The rats were checked 6–8 days after inoculation, when tumors of sufficient size (20–60 mg) had developed. The tumor was weighed after F—Na visualization and dissection. Parts of the rats' brains were subject to histological examinations and monitored for Evans Blue and Fluorescein uptake into ipsilateral tumour tissue, peritumoural tissue and contralateral tissue.
(§3) The bilateral tumor model system of C6 glioma-bearing rats described in Example 23 above was employed for screening of various derivatives of DP-BFA for their ability to permeabilize the blood brain barrier (BBB) in comparison to their effect on the blood tumor barrier (BTB). The experimental procedure described in Example 23 was followed except that the tumor-bearing rats were further treated with DP-BFA. The tested compounds, at concentrations around their EC50 values, were unilaterally infused into the external carotis artery over 30 seconds as described in Example 17. Animals treated with vehicle only serve as a control group. Permeabilization effect was quantitated by measuring accumulation of albumin bound Evans blue dye in tumor (T) versus non-tumor (NT) tissues.
(§4) Specificity index is defined as the ratio between the levels of EB accumulated in tumor and those accumulated in non-tumor brain tissues (T/NT).

Data set [2] is classed as in vivo. The following applies: rats, sodium salt; for LC (minimal concentration that caused death): i.a., viability monitored 24 hours. The protocol: DP-BFA molecules were evaluated for safety and toxicity. Increasing doses of the tested compounds were administered intra-arterially (i.a.) into rats following the protocol described above in Example 17. Animal viability was monitored for 24 hours to evaluate lethal concentrations (LC). LC is defined as the minimal concentration that caused death.
Safety index is defined as the ratio between the lethal dose (LC) and the minimal effective concentration (MEC), wherein MEC corresponds to a calculated concentration of the tested compound that elicits accumulation of three times the amount of Evans blue accumulated in control animals treated with vehicle only, i.e. total accumulation of 3 μg EB. The higher the LC/MEC ratio is, the higher the safety index.

Data set [3] deals with blood brain barrier (BBB). In words: BBB permeabilization in rats, Evans blue extravasation into brain. Type of data set: in vivo, Sprague-Dawley rats. The following applies: for MEC: Table 8, sodium salt, in µM; for permeabilization of the BBB (FIG. 1, in words): Evans blue extravasation in rat brain, 3,n-type BFAs; for MEC (minimal effective concentration) / EC50 / μg EB/g brain (at EC50): Table 5; for MEC (minimal effective concentration): concentration giving 3 μg EB/g brain; for EC50: rat brain, intracarotid infusion, read-out: EC50 (Evans Blue extravasation). From the text: Permeabilization of the BBB by DP-BFA was investigated in rat model system by monitoring accumulation in the brain of two markers: a) Evans blue dye (EB), which rapidly binds in vivo with albumin (NW 70 kD) and is an indicator for paracellular transport; and b) Fluorescein sodium salt (F—Na), MW 376 D, which is transported via the cellular space, and enables monitoring transcellular transport. Upon BBB disruption the Evans blue-albumin complex irreversibly accumulates in the intercellular space of the brain. The much smaller tracer fluorescein may be transported intracellularly to occupy both inter and intracellular space in the brain.
Blood brain barrier permeabilization in Sprague-Dawley rats was induced by brief exposure to DP-BFA. The animals were anesthetized with Rampun-Imalgen and DP-BFA test compounds were administered via the external carotid artery retrograde to the brain (Smith, Q. R. Methods of study. In: Physiology and Pharmacology of the Blood-Brain Barrier. Ed. Bradbury M. W. B. Spinger-Verlag. Berlin-Heidelberg-NY; 1992: 24–52). The pterygo-palathina artery was ligated to avoid escape of infused solutions towards the external head vasculature. DP-BFA solutions were infused over a period of 30 seconds or half an hour, using a Harvard Apparatus Syringe Pump. Blood flow through carotid communis artery was interrupted only at the time of infusion.
All tested DP-BFA molecules were prepared from stock solutions in either water or ethanol by diluting 200–1000 fold into solution of isosmotic mannitol (5%) in Tromethamine buffer (Sigma) or PBS (pH 7.4)
The markers, Evans blue (EB, 25 mg/ml) and fluorescein (F—Na, 12.5 mg/ml), in 1 ml solution, were injected intravenously immediately following administration of the tested DP-BFA, or after a specific time interval if reversibility of action was investigated. Supportive i.v. infusion of F—Na (12.5 mg/ml–100 μl/min) was performed for 8 minutes. Brains were washed with saline solution (60 ml) 10 min after the intracarotid “flash”. Brain ipsilateral and contralateral hemispheres and tumors, where applicable, were homogenized separately with 50% trichloroacetic acid (TCA). The markers concentrations in the cortex and in tumors, where, applicable, were determined spectrofluorometrically (Uyama, O. et al., (1988) J. Cereb. Blood Flow Metab. 8, 282–284: Abraham et al., (1996) Neurosci. Lett. 208, 85–88). The markers content was calculated as μg marker per one-gram brain tissue. Standard error and Student's test for statistical significance were used.
The experiment was carried out on male Sprague-Dawley rats weighing 250–320 g. The procedure described above in Example 17 was followed.
The effect of the tested compounds on the BBB opening was evaluated by two parameters:
a) efficacy—The degree of BBB opening estimated in terms of accumulation of Evans Blue albumin (μg EB/g brain tissue); and
b) potency—measured in terms of EC50 and minimal effective concentration (MEC) values. EC50 is the concentration of a tested compound producing 50% of the maximal effect of Evans Blue extravasation.
The effect of various DP-BFAs on BBB permeability was tested in the model system of rat brains, as described above in Example 17. Efficacy, namely the level of the BBB opening was expressed as the amount of Evans blue accumulated in the brain (μg EB/g brain). Potency of the tested molecules was estimated by their calculated EC50 and minimal effective concentration (MEC) values.

The subject of data set [4] is blood brain barrier (BBB). In words: BBB opening in C6 glioma-bearing rats, Evans blue accumulation in non-tumor brain. Type of data set: in vivo, Sprague Dawley rats. The settings on record: concentrations around EC50 (Mannitol 25%), unilateral 30 s infusion. The protocol:
as §1, §2, §3, §4

A short description of data set [5]: Octanol/saline solubility and partition coefficient, shake-flask technique. The following applies: for LogPc (octanol-saline partition coefficient): octanol/physiological saline; for LogPc (octanol-saline partition coefficient) / Water mg/ml (solubility in aqueous solution): sodium salts; for Water mg/ml (solubility in aqueous solution): physiological saline as aqueous solution; for Octanol mg/ml (solubility in octanol): sodium salts of the branched fatty acids and their PO4 derivatives.
Experimental: The lipophilicity values of various derivatives of branched fatty acids were estimated by comparing the solubility of these compounds in organic versus aqueous solutions. Octanol and physiological saline were used, respectively, as the organic and aqueous solutions. The partition coefficient (Pc) value, i.e. the octanol/saline distribution was measured by the shake-flask technique.

Data set [6] relates to blood brain barrier (BBB). In words: BBB permeability to EB-albumin and Fluorescein in normal rat brains. Type of data set: in vivo. The settings on record: compounds at EC50 (Mannitol 25%); for Ratio F-Na/EB (mean of individual ratios): control 9.5 ± 1.6. From the text:
The effect of various DP-BFAs on BBB permeabilization to molecules of different sizes was examined in vivo in the model system of normal rat brains.
The transport of two markers was followed: a) Evans blue bound to albumin (MW 70 kD) as an indicator for paracellular transport; and b) Fluorescein sodium salt (MW 376 D) that represents small size molecules.
The Evans blue dye (EB) and Fluorescein sodium salt (F—Na) were infused into the artery carotis externa over 30 seconds according to the protocol described above in Example 17. The test compounds were used at their EC50 concentrations. Control animals were treated with vehicle solution.
Evans blue extravasation is expressed as the percentage of the total amount of EB accumulated per one gram of brain tissue. The transport of fluorescein into the brain, which is dependent on the serum concentration of this molecule, is presented as percentage of the F—Na level in the serum.

Where “and” joins values, the source holds several entries; their conditions need not be identical. Equal entries are not always repeated.

Usually EC50 stands for the concentration needed to bring the measured effect to its halfway point.

4-Hexadecanyl Phosphate [3,12-PO4]: in data set [1], the EC50 was 10 ± 2 µM, the “BTB EB μg/g Tumor” value came to 14 ± 6 µg/g and the “Specificity Tumor/Non-tumor (T/NT)” value was found to be 6.3 ± 1.3. Further, in data set [2], the “LC (minimal concentration that caused death)” value was found to be 63 ± 12 µM and the “Safety LC/MEC” value stood at 19.1. Also, the MEC in data set [3] came out at 3.3 ± 0.5. Besides, in data set [4], the “BBB EB μg/g Non-tumor brain” value stood at 2.5 ± 1.5 µg/g. Also, in data set [5], the “LogPc (octanol-saline partition coefficient)” value (shortened to “LogPc”) is on record as 1.9, the “Water mg/ml (solubility in aqueous solution)” value (“Water mg/ml” for short) is more than 2.5 mg/mL and the “Octanol mg/ml (solubility in octanol)” value is less than 5 mg/mL. Besides, in data set [6], the “Ratio F-Na/EB (mean of individual ratios)” value is recorded as 5.9.

As to `CCCCCCCCCCCCCCCCC(CCC)C(=O)[O-].[Na+]` (stereo not shown) [3,16-Na, reference compound], in data set [2], the “LC (minimal concentration that caused death)” value is 431 ± 55 µM and the “Safety LC/MEC” value stood at 23.9. For the same compound, in data set [3], the “permeabilization of the BBB (FIG. 1, in words)” value is reported as “active”; the “MEC (minimal effective concentration)” value was determined as 18 ± 2; the EC50 worked out at 137 ± 17 µM; the MEC amounted to 18 ± 2. Besides, in data set [5], the “LogPc” value came to 1.26, the “Water mg/ml” value came out at 9.4 mg/mL and the “Octanol mg/ml (solubility in octanol)” value was more than 20 mg/mL.

`CCCCCCCC(CCCCCCC)OP(=O)(O)O` [7,7-PO4, 8-Pentadecyl phosphate]: in data set [5], the “LogPc” value is given as less than 5, the “Water mg/ml” value is more than 10 mg/mL and the “Octanol mg/ml (solubility in octanol)” value is more than 10 mg/mL.

Take 4-Octadecyl phosphate [3,14-PO4]: in data set [2], the “LC (minimal concentration that caused death)” value amounted to 134 ± 18 µM and the “Safety LC/MEC” value is listed as 21.6. For the same compound, the MEC in data set [3] turned out to be 6.2 ± 0.9.

With `CCCCCCCCCCCCCCC(CCC)C(=O)[O-].[Na+]` (stereo not shown) [3,14-Na, reference compound], in data set [2], the “LC (minimal concentration that caused death)” value worked out at 78 ± 11 µM and the “Safety LC/MEC” value worked out at 8.6. In addition, in data set [3], the “permeabilization of the BBB (FIG. 1, in words)” value is listed as “active”; the “μg EB/g brain (at EC50)” value is 16.5 ± 2.5 μg EB/g brain; the “MEC (minimal effective concentration)” value worked out at 9.1 ± 12; the concentration giving a half-maximal response (EC50) was 40 ± 5 µM. The MEC in data set [3] was found to be 9.1 ± 1.2. For the same compound, in data set [5], the “LogPc” value turned out to be 1.26, the “Water mg/ml” value was more than 10 mg/mL and the “Octanol mg/ml (solubility in octanol)” value is more than 20 mg/mL. The “% EB/g brain” value in data set [6] (control 0.04 ± 0.01) is on record as 0.8 ± 0.07%. In addition, the “Brain fluorescein uptake (% of serum F-Na level)” value in data set [6] (control 0.3 ± 0.08) is 3.8 ± 0.5 % of the F—Na level in the ser. Further, the “Ratio F-Na/EB (mean of individual ratios)” value in data set [6] is 4.7 and 4.7 ± 1.7.

Take `CCCCCCCCCCCCC(CCC)OCCOCCOP(=O)(O)O` (stereo not shown) [3,12-(ether)-DEG-PO4, 2-(4′-Hexadecanyloxy)ethoxyethyl phosphate]: in data set [5], the “LogPc” value is on record as 0.83, the “Water mg/ml” value is more than 5 mg/mL and the “Octanol mg/ml (solubility in octanol)” value is more than 5 mg/mL.

As for “4-Hexadecanoyloxyethyl phosphate [3,12-MEG-PO4]”, in data set [1], the midpoint of the response, the EC50, lay at 22 ± 3 µM; the “BTB EB μg/g Tumor” value was determined as 25 ± 3 µg/g; the “Specificity Tumor/Non-tumor (T/NT)” value turned out to be 1.2 ± 0.2. Further, in data set [2], the “LC (minimal concentration that caused death)” value is 80 ± 15 µM. Also, the MEC in data set [3] was 11 ± 2. The “BBB EB μg/g Non-tumor brain” value in data set [4] was determined as 21 ± 4 µg/g. In data set [5], the “LogPc” value was 1.09, the “Water mg/ml” value is more than 10 mg/mL and the “Octanol mg/ml (solubility in octanol)” value is more than 10 mg/mL.

Take `CCCCCCCCCCC(CCC)C(=O)[O-].[Na+]` (stereo not shown) [3,10-Na, reference compound]: in data set [3], the “μg EB/g brain (at EC50)” value is reported as 08 μg EB/g brain and the EC50 was approximately 700 µM.

In the case of `CCCCCCCC(CCC)C(=O)[O-].[Na+]` (stereo not shown) [3,7-Na, reference compound], in data set [3], the “μg EB/g brain (at EC50)” value is on record as 0.8 μg EB/g brain and the EC50 is more than 450 µM.

These data come from patent publication US7186703B2, “Derivatives of branched-chain lipophilic molecules and uses thereof” (D-Pharm Ltd., priority 2000, dated 2007).
